Source: a melting point compilation (Tetko et al.; mined from patent text by program, amines drawn as free bases though some values may be those of a salt)

| melting point | Structure (SMILES) |
| --- | --- |
| 130 to 132 °C | C[C@@H](O)C(=O)NC[C@H]1CCc2ccc(S(=O)(=O)c3ccccc3)cc2O1 |
| 122 to 124 °C | COC(=O)COc1ccc(SCc2ccc(-c3ccc(C(F)(F)F)cc3)cc2)c2c1CCCO2 |
| 148 to 150 °C | O=C(C=Cc1ccc(C(F)(F)F)cc1)C=Cc1ccc(C(F)(F)F)cc1 |
| > 260 °C | O=C(O)c1ccc(-c2ccc(NS(=O)(=O)C(F)(F)F)cc2)[nH]c1=O |
| 96.5 to 98 °C | CCOC(=O)C(CC)C(=O)Nc1cc(Cl)cc(Cl)c1 (stereo not drawn) |
| 111 to 112 °C | CCCOCC1(c2onc(-c3ccc(O)cc3)c2-c2ccccc2)CC1 |
| 175 to 176 °C | COc1ccc(/C(C)=C/c2ccc(C(=O)O)cc2)cc1C1(C)CCCCC1 |
| 173 to 174 °C | COc1ccc(-n2nccc2-c2nn(-c3cccc(C(F)(F)F)c3)ccc2=O)cc1 |
| 197 to 200 °C | Cc1nnc2ccc(-c3cccc(CC(=O)NC(C)C)c3)nn12 |
| 124 to 125 °C | Cc1cc(OCc2ccccc2F)c2cccc(O)c2n1 |
| 128 to 130 °C | COc1ccc(OC)c(COc2ccc(S(=O)(=O)c3ccc(C)nc3Nc3c(C)cc(C)cc3C)cc2)c1 |
| 100 to 104 °C | COc1ccc(Cl)cc1[C@]1(F)C(=O)N(C(=O)N[C@H](C(=O)O)C(C)C)c2cc(C(F)(F)F)ccc21 |
| 121 to 122 °C | CCOC(=O)CNC(=O)CCCCCNC(=O)c1ccc(F)cc1 |
| 141 to 142 °C | Cc1cccc(C)c1N(CCCC(=O)NCC(=O)O)C(=O)c1ccc(Cl)cc1 |
| 47 to 49 °C | CC=C1C(=O)c2ccccc2OC1c1ccccc1 (stereo not drawn) |
| 234 °C | CC(=O)Nc1ccc2oc3c(OC(F)F)ccc(C(=O)Nc4c(Cl)cncc4Cl)c3c2c1 |
| 205 to 209 °C | CCCCOCCOc1ccc(-c2cc3c4c(c2)OCCN4CCCC(C(=O)O)=C3)cc1 |
| 132 to 134 °C | COC(=O)C1=C(C)NC(C)=C(C(=O)OCC2CCC(=O)O2)C1c1ccccc1[N+](=O)[O-] (stereo not drawn) |
| 150 to 152 °C | CS(=O)(=O)c1ccc(-c2cnn(CC=C(Cl)Cl)c(=O)c2-c2ccc(F)cc2)cc1 |

| melting point | Structure (SMILES) |
| --- | --- |
| 187 to 189 °C | CC(C)(C)C1c2ccccc2-c2ccccc2N1S(=O)(=O)c1ccc(O)cc1 (stereo not drawn) |
| 49 to 58 °C | COc1ccc(CCCNC(=O)c2coc(-c3ccc(/C(=C\CCCCC(=O)O)c4cccnc4)cc3)n2)cc1 |
| 200 to 202 °C | Cc1ccc2c(NCc3ccc(NC(=O)c4ccc(F)cc4)cc3)nc(N3CCN[C@@H](C)C3)nc2c1 |
| 79 to 80 °C | CCCCCCCCCCCC(=O)c1cn(S(=O)(=O)c2ccc(C)cc2)c2ccccc12 |
| 135 to 136 °C | COc1ccc(O)c(C2(OC)Sc3ccccc3N(C)C2=O)c1 (stereo not drawn) |
| 227 °C | NC(=O)Oc1ccccc1-c1nc2ccc(OCc3c(F)cccc3Cl)cc2s1 |
| 177 to 179 °C | C=CCOC(=O)Nc1ccc(N2CCN(N3C=NN(CC(C)(O)c4ccc(Cl)cc4Cl)C3)CC2)cc1 (stereo not drawn) |
| 101 °C | COC(=O)c1ccc(C(=O)c2c(O)cccc2F)cc1 |
| 89 to 91 °C | CCOC(=O)c1ccc(N=CN(C)c2ccc(C(=O)OCC)cc2)cc1 |
| 75 to 80 °C | CCc1cc(C(=O)c2ccccc2Cl)c(-n2c(CNC(=O)c3ccc(Cl)c(Cl)c3)nnc2C(F)(F)F)s1 |
| 85 °C | CCCCC[C@H]1CC[C@H](c2ccc(CC(=O)OCc3ccc(C#N)cc3)cc2)CC1 |
| 176 °C | Cc1ccc2c(C#N)cn(-c3ccc(C(C)C)cc3Br)c2n1 |
| 95 to 97 °C | COC(=O)Cn1c(Cc2ccccc2)ccc(NC(=O)CCc2ccccc2)c1=O |
| 121 to 123 °C | CCOC(=O)C(CC(=O)c1cccc(F)c1)(NC(C)=O)C(=O)OCC |
| 212 to 214 °C | COc1ccc(NC(=O)c2csc(Nc3ccc(C)cn3)n2)cc1OC |
| 124 to 126 °C | COC(=O)c1c(OCc2ccccc2)ccc2c1CC[C@@H](N)[C@@H]2O (relative stereo) |
| 100 °C | CCOC(=O)CCC(=O)OCC(F)(F)Cn1nc(C)c(-c2ccc3c(c2)NC(=O)CO3)c1-c1ccc(F)cc1 |
| 206 to 207 °C | COC(=O)C1=C(C)NC(C)=C(C(=O)OC)C1c1cc([N+](=O)[O-])ccc1OC/C=C/CCl |

Further lines, the molecule ahead of its results:

| Structure (SMILES) | melting point |
| --- | --- |
| O=C1NCc2cc(Br)sc21 | 96 to 97 °C |
| CN(c1cc(OCCCS(C)(=O)=O)cc2cc(C3=NCC(CN4CCOCC4)S3)[nH]c12)S(=O)(=O)c1ccccn1 (stereo not drawn) | 168 to 169 °C |
| C#Cc1ccc(C#Cc2ccncc2)s1 | 134 to 136 °C |
| CC(C)(C)c1cc(C2=NOC(CC(=O)Nc3ccc([N+](=O)[O-])cc3)C2)cc(C(C)(C)C)c1O (stereo not drawn) | 149 to 151 °C |
| CNc1nc(-c2cccc(NC(=O)c3ccc(OC)c(OC)c3)c2)c2cc(OC)c(OC)cc2n1 | 128 to 130 °C |
| CS(=O)(=O)C=Cc1ccccc1 | 77 to 79 °C |
| CS(=O)(=O)c1ccc(-c2oc3ccccc3c(=O)c2-c2ccc(Cl)cc2)cc1 | 145 to 147 °C |
| Cc1nc2cc(C(=O)NC(C)C)c(NC(=O)c3cc(C(F)(F)F)nn3-c3ncccc3Cl)c(Cl)c2nc1C | 243 to 244 °C |
| CCCCCCc1cc(C(=O)O)c(C)o1 | 59 to 60 °C |
| COc1ccc(-c2cnc3ncnn3c2NC2CCCC2)cc1 | 127 °C |
| Cc1cc(C)cc(Nc2nccc(-c3nc4ccccc4s3)n2)c1 | 217 to 219 °C |
| CC(CCOS(C)(=O)=S)(C(=O)O)C(=O)O (stereo not drawn) | 109 to 111 °C |
| CC(C)(/C=C\Cl)C(=O)Nc1ccc(Cl)cc1 | 127 to 128 °C |
| O=C(N1CCCC1)N1Cc2c(-c3ccc(F)cc3)ncn2-c2ccccc21 | 217 to 218 °C |
| N#Cc1cc(C2=NOC(c3cc(Cl)cc(Cl)c3)(C(F)(F)F)C2)ccc1-n1cccn1 (stereo not drawn) | 169 to 176 °C |
| CCCOc1ccccc1-c1nc2nc(OC)nnc2c(=O)[nH]1 | 234 to 235 °C |
| FC(F)(F)c1ccc(/C=C/c2nc(COc3ccc(CCCn4ccnn4)cc3)co2)cc1 | 157 to 158 °C |
| Oc1cc(O)cc(-c2ccccc2)c1 | 157 to 158 °C |
| Cc1nc(Cl)c2c(c1O)COC2C (stereo not drawn) | 248 °C |
| COCCOCCOCCOc1cc([N+](=O)[O-])c([N+](=O)[O-])cc1OCCOCCOCCOC | 43 to 45 °C |
| O=C1O[C@@H](Cn2ccnn2)CN1c1ccc(-c2ccc(C3=NOC(C4(O)CCCC4)C3)nc2)c(F)c1 (stereo partly drawn) | 225 °C |

| Structure (SMILES) | melting point |
| --- | --- |
| COC(=O)c1cc(-n2cnc(Br)c2)c(C(F)(F)F)cc1N | 163 to 165 °C |
| COc1cc(OC)cc(-c2ncn(C)c2-c2ccc3c(c2)NCCO3)c1 | 175 to 178 °C |
| COc1cccc2c1nc(C(F)F)n2-c1nc(N2CCOCC2)nc2c1ncn2-c1cccnc1 | 206 to 209 °C |
| Cc1ccc(S(=O)(=O)N2CCCCC2)cc1 | 148 to 150 °C |
| COc1ccc(-c2cc(=Nc3c(C)cc(C)cc3C)n(C)c3nnnn23)cc1OC | 198 to 200 °C |
| Cc1nc(Sc2ncccc2C(=O)O)sc1CC(=O)O | 233 to 235 °C |
| c1cncc(-c2noc(-c3ccco3)n2)c1 | 110 to 114 °C |
| S=c1cc(-c2ccc(Cl)cc2)ss1 | 135 °C |
| CC(=O)N(C#N)CCCCCCN(C#N)C(C)=O | 59 to 61 °C |
| c1ccc(-c2nnc3ccc(N4CCOCC4)nn23)cc1 | 266 to 268 °C |
| O=c1nc(-c2cccc(CN3CCC(Cc4ccccc4)CC3)n2)sc2ccccc12 | 151 to 153 °C |
| Cc1onc(-c2ccccc2)c1-c1cc2ccccc2[nH]1 | 145 to 146 °C |
| CCn1nc(C(F)(F)F)c(C(=O)O)c1Cl | 164 to 166 °C |
| CC1(C)CC(=O)c2cc(SCc3ccccc3)[nH]c2C1 | 148 to 150 °C |
| CN1C(=O)C(C)(C)C(=O)N(C)c2cc(N)ccc21 | 221 to 222 °C |
| N#Cc1c(C(F)(F)C(F)(F)F)nn(-c2c(Cl)cc(C(F)(F)F)cc2Cl)c1N | 160 to 162 °C |
| O=c1c2c[nH]c3ccccc3n-2c(=O)n1-c1ccccc1 | 231 to 234 °C |
| CC(O)=CC(N)=NC(C)(C)C | 119 to 125 °C |
| CCCCOc1nc(N)c2nc(OC)n(CCSc3cccc(CC(=O)O)c3)c2n1 | 205 to 207 °C |
| Cc1ncc(C#N)c(Nc2ccc3[nH]ccc3c2C)c1-c1cc2cc(CN3CCN(C)CC3)ccc2o1 | 218 to 220 °C |
| Cc1noc(NS(=O)(=O)c2ccc(-c3cc4ccccc4s3)s2)c1Br | 164 °C |

| Structure (SMILES) | melting point |
| --- | --- |
| c1ccc(-c2nc3ccc(Cn4ccnc4)cc3nc2-c2ccccc2)cc1 | 159 °C |
| CC(C)OC(=O)c1cc(-c2nn(C)c(C(F)(F)F)c2C=O)c(F)cc1Cl | 90 °C |
| c1cnc2ncn(CCCCc3nnnn3C3CCCCC3)c2c1 | 143 to 146 °C |
| O=C1CC2(CCCCC2Cc2ccccc2)SCCN1 (stereo not drawn) | 130 to 135 °C |
| CCc1cc(O)cc(C)c1N | 167 to 170 °C |
| CC(=O)NC(Cc1csc2ccccc12)C(=O)C=Cc1cc(C(F)(F)F)cc(C(F)(F)F)c1 (stereo not drawn) | 172 to 173 °C |
| S=C(Nc1cccc(Br)c1)N1CCCSC1c1ccccc1 (stereo not drawn) | 135 to 137 °C |
| O=[N+]([O-])c1cc(CN(CCN=C=S)CCN=C=S)cc(CN(CCN=C=S)CCN=C=S)c1 | 62 to 64 °C |
| O=C(NNS(=O)(=O)c1ccccc1)c1cccc2cccnc12 | 173 to 175 °C |
| ON=C1COc2cc(OCc3c(F)cccc3F)ccc21 | 166 to 172 °C |
| NC(=S)NN=C(CCCCl)c1cccs1 | 120 to 122 °C |
| Cc1c(C=CCN)[nH]c(=O)c2c1ccc1nc(Nc3c(Cl)cccc3Cl)n(C)c12 | > 300 °C |
| O=C(Nc1ccccc1S(=O)(=O)C1CCCC1)N[C@@H](Cc1ccc(NC(=O)c2c(Cl)cncc2Cl)cc1)C(=O)O | 233 °C |
| CCN1CCN(c2ccc([N+](=O)[O-])cc2OC)CC1 | 84 to 85 °C |
| CS(=O)(=O)c1ccc(C=Cc2cc(=O)cc(-c3ccccc3)o2)cc1 | 239 to 241 °C |
| O=[N+]([O-])c1cccc2c1nnn2C1CCCC(Cl)C1Cl (stereo not drawn) | 145 to 148 °C |
| CCc1nnc2c(NC(C)C)nc3ccccc3n12 | 222 to 224 °C |
| COc1cccc(OC)c1C#CC(F)(F)F | 110 to 111 °C |
| CCCCCCCCOc1ccc(C(=O)NNc2nc(NNC(=O)c3ccc(OCCCCCCCC)cc3O)nc(N(CCC)CCC)n2)c(O)c1 | 195 to 196 °C |
